Measurements reported in paper PMC6496074, “The Evolution of Azole Resistance in Candida albicans Sterol 14α-Demethylase (CYP51) through Incremental Amino Acid Substitutions” (Antimicrobial Agents and Chemotherapy, 2019).
“And” between values parts separate entries of the source, which are not always exact repeats. Equal values may be shown once.

Assays:
Assay in all cases: CYP51 reconstitution assay
Type in all cases: biochemical
CaCYP51 Y132F = biological target: T1, CaCYP51 Y132F (Candida albicans, UniProt P10613, Y132F); details: mean ± SD, duplicate
T1 construct: made in house; host or cells: E. coli DH5α (pCWori+)
Experimental: (§1) Azole antifungal agents were added in 2.5 μl dimethyl sulfoxide, followed by 10 min of incubation at 37°C prior to assay initiation with 4 mM β-NADPH-Na4. The samples were then shaken for 15 min at 37°C. Sterol metabolites were recovered by extraction with ethyl acetate, followed by derivatization with 0.1 ml N,O-bis(trimethylsilyl)trifluoroacetamide (BSTFA)–trimethylchlorosilane (TMCS) (99:1) and 0.3 ml anhydrous pyridine (2 h at 80°C), prior to analysis by gas chromatography-mass spectrometry (GC-MS) ([52]). IC50 determinations were performed in duplicate.

CaCYP51 S279F = biological target: T2, CaCYP51 S279F (Candida albicans, UniProt P10613, S279F)
T2 construct: made in house; host or cells: E. coli DH5α (pCWori+)
Experimental: as §1

CaCYP51 G448E = biological target: T3, CaCYP51 G448E (Candida albicans, UniProt P10613, G448E)
T3 construct: made in house; host or cells: E. coli DH5α (pCWori+)
Experimental: as §1

CaCYP51 D278N+G464S = biological target: T4, CaCYP51 D278N+G464S (Candida albicans, UniProt P10613, D278N/G464S)
T4 construct: made in house; host or cells: E. coli DH5α (pCWori+)
T4 sequence (P10613 whole entry, looked up, stated change not applied): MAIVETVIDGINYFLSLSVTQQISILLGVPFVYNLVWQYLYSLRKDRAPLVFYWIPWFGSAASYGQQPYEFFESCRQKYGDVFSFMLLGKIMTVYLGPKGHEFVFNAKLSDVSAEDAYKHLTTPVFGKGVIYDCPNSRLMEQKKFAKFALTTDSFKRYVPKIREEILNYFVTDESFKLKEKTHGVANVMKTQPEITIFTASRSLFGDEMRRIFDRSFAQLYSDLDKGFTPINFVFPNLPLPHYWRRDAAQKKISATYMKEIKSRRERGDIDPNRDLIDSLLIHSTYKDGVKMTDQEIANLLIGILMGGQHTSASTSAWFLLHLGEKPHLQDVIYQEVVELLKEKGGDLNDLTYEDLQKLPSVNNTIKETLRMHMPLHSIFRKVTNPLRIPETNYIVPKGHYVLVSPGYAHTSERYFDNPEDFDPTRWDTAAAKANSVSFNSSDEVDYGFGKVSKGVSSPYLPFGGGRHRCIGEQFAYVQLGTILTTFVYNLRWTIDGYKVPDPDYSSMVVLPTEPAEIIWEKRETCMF
Experimental: as §1

CaCYP51 V437I = biological target: T5, CaCYP51 V437I (Candida albicans, UniProt P10613, V437I)
T5 construct: made in house; host or cells: E. coli DH5α (pCWori+)
T5 sequence (P10613 whole entry, looked up, stated change not applied): as above
Experimental: as §1

CaCYP51 Y447H = biological target: T6, CaCYP51 Y447H (Candida albicans, UniProt P10613, Y447H)
T6 construct: made in house; host or cells: E. coli DH5α (pCWori+)
Experimental: as §1

CaCYP51 F449Y = biological target: T7, CaCYP51 F449Y (Candida albicans, UniProt P10613, F449Y)
T7 construct: made in house; host or cells: E. coli DH5α (pCWori+)
Experimental: as §1

CaCYP51 S405F = biological target: T8, CaCYP51 S405F (Candida albicans, UniProt P10613, S405F)
T8 construct: made in house; host or cells: E. coli DH5α (pCWori+)
T8 sequence (P10613 whole entry, looked up, stated change not applied): as above
Experimental: as §1

CaCYP51 Y118A = biological target: T9, CaCYP51 Y118A (Candida albicans, UniProt P10613, Y118A)
T9 construct: made in house; host or cells: E. coli DH5α (pCWori+)
Experimental: as §1

CaCYP51 P230L = biological target: T10, CaCYP51 P230L (Candida albicans, UniProt P10613, P230L)
T10 construct: made in house; host or cells: E. coli DH5α (pCWori+)
Experimental: as §1

CaCYP51 F145L = biological target: T11, CaCYP51 F145L (Candida albicans, UniProt P10613, F145L)
T11 construct: made in house; host or cells: E. coli DH5α (pCWori+)
Experimental: as §1

CaCYP51 G464S = biological target: T12, CaCYP51 G464S (Candida albicans, UniProt P10613, G464S)
T12 construct: made in house; host or cells: E. coli DH5α (pCWori+)
Experimental: as §1

CaCYP51 Wild type = biological target: T13, CaCYP51 Wild type (Candida albicans, UniProt P10613); details: Wild type
T13 construct: made in house; host or cells: E. coli DH5α (pCWori+)
T13 sequence (P10613 whole entry, looked up, natural form): as the sequence (P10613 whole entry, looked up, stated change not applied) above
Experimental: as §1

CaCYP51 Y132H+K143R = biological target: T14, CaCYP51 Y132H+K143R (Candida albicans, UniProt P10613, K143R/Y132H)
T14 construct: made in house; host or cells: E. coli DH5α (pCWori+)
T14 sequence (P10613 whole entry, looked up, stated change not applied): as above
Experimental: as §1

CaCYP51 F126V = biological target: T15, CaCYP51 F126V (Candida albicans, UniProt P10613, F126V)
T15 construct: made in house; host or cells: E. coli DH5α (pCWori+)
Experimental: as §1

CaCYP51 R467K = biological target: T16, CaCYP51 R467K (Candida albicans, UniProt P10613, R467K)
T16 construct: made in house; host or cells: E. coli DH5α (pCWori+)
Experimental: as §1

CaCYP51 Y132H = biological target: T17, CaCYP51 Y132H (Candida albicans, UniProt P10613, Y132H)
T17 construct: made in house; host or cells: E. coli DH5α (pCWori+)
Experimental: as §1

CaCYP51 Y257H = biological target: T18, CaCYP51 Y257H (Candida albicans, UniProt P10613, Y257H)
T18 construct: made in house; host or cells: E. coli DH5α (pCWori+)
Experimental: as §1

CaCYP51 G450E = biological target: T19, CaCYP51 G450E (Candida albicans, UniProt P10613, G450E)
T19 construct: made in house; host or cells: E. coli DH5α (pCWori+)
T19 sequence (P10613 whole entry, looked up, stated change not applied): as above
Experimental: as §1

CaCYP51 D278N = biological target: T20, CaCYP51 D278N (Candida albicans, UniProt P10613, D278N)
T20 construct: made in house; host or cells: E. coli DH5α (pCWori+)
Experimental: as §1

CaCYP51 Q474K = biological target: T21, CaCYP51 Q474K (Candida albicans, UniProt P10613, Q474K)
T21 construct: made in house; host or cells: E. coli DH5α (pCWori+)
Experimental: as §1

CaCYP51 V456I = biological target: T22, CaCYP51 V456I (Candida albicans, UniProt P10613, V456I)
T22 construct: made in house; host or cells: E. coli DH5α (pCWori+)
T22 sequence (P10613 whole entry, looked up, stated change not applied): as above
Experimental: as §1

CaCYP51 V488I = biological target: T23, CaCYP51 V488I (Candida albicans, UniProt P10613, V488I)
T23 construct: made in house; host or cells: E. coli DH5α (pCWori+)
Experimental: as §1

CaCYP51 G307S+G450E = biological target: T24, CaCYP51 G307S+G450E (Candida albicans, UniProt P10613, G307S/G450E)
T24 construct: made in house; host or cells: E. coli DH5α (pCWori+)
T24 sequence (P10613 whole entry, looked up, stated change not applied): as above
Experimental: as §1

CaCYP51 I471T = biological target: T25, CaCYP51 I471T (Candida albicans, UniProt P10613, I471T)
T25 construct: made in house; host or cells: E. coli DH5α (pCWori+)
Experimental: as §1

CaCYP51 G307S = biological target: T26, CaCYP51 G307S (Candida albicans, UniProt P10613, G307S)
T26 construct: made in house; host or cells: E. coli DH5α (pCWori+)
Experimental: as §1

CaCYP51 Y132F+K143R = biological target: T27, CaCYP51 Y132F+K143R (Candida albicans, UniProt P10613, K143R/Y132F)
T27 construct: made in house; host or cells: E. coli DH5α (pCWori+)
T27 sequence (P10613 whole entry, looked up, stated change not applied): as above
Experimental: as §1

CaCYP51 Y132F+F145L = biological target: T28, CaCYP51 Y132F+F145L (Candida albicans, UniProt P10613, F145L/Y132F)
T28 construct: made in house; host or cells: E. coli DH5α (pCWori+)
Experimental: as §1

[1] = 0.25 h, 4 μM triazole, % of activity without triazole, read-out: Residual CYP51 activity (%) ± SD
[2] = 0.25 h, read-out: Residual CYP51 activity (%) ± SD

CC[C@@H]([C@H](C)O)n1ncn(-c2ccc(N3CCN(c4ccc(OC[C@@H]5CO[C@@](Cn6cncn6)(c6ccc(F)cc6F)C5)cc4)CC3)cc2)c1=O [Posaconazole, posaconazole]
IC50 (CaCYP51 Y132F): 343 ± 20 nM | remaining activity at 4 µM (CaCYP51 S279F; [1]): 20.64 ± 0.1% | IC50 (CaCYP51 S279F; mean ± SD, duplicate): 912 ± 16 nM | remaining activity at 4 µM (CaCYP51 G448E; [1]): 7.89 ± 0.29% | IC50 (CaCYP51 G448E; mean ± SD, duplicate): 542 ± 51 nM | fold increase in IC50 over wild-type enzyme (CaCYP51 D278N+G464S): 4.8 fold | remaining activity at 4 µM (CaCYP51 D278N+G464S; [1]): 15 ± 1.16% | IC50 (CaCYP51 D278N+G464S; mean ± SD, duplicate): 930 ± 9 nM | remaining activity at 4 µM (CaCYP51 V437I; [1]): 0.59 ± 0.2% | IC50 (CaCYP51 V437I; mean ± SD, duplicate): 319 ± 9 nM | remaining activity at 4 µM (CaCYP51 Y447H; [1]): 8.19 ± 3.58% | IC50 (CaCYP51 Y447H; mean ± SD, duplicate): 439 ± 135 nM | remaining activity at 4 µM (CaCYP51 F449Y; [1]): 5.42 ± 0.04% | IC50 (CaCYP51 F449Y; mean ± SD, duplicate): 366 ± 37 nM | remaining activity at 4 µM (CaCYP51 S405F; [1]): 9.38 ± 0.53% | IC50 (CaCYP51 S405F; mean ± SD, duplicate): 637 ± 54 nM | remaining activity at 4 µM (CaCYP51 Y118A; [1]): 0.46 ± 0.35% | IC50 (CaCYP51 Y118A; mean ± SD, duplicate): 206 ± 4 nM | remaining activity at 4 µM (CaCYP51 P230L; [1]): 0.21 ± 0.05% | IC50 (CaCYP51 P230L; mean ± SD, duplicate): 238 ± 2 nM | remaining activity at 4 µM (CaCYP51 F145L; [1]): 1.37 ± 1.21% | IC50 (CaCYP51 F145L; mean ± SD, duplicate): 359 ± 18 nM | remaining activity at 4 µM (CaCYP51 G464S; [1]): 0.54 ± 0.09% | IC50 (CaCYP51 G464S; mean ± SD, duplicate): 253 ± 24 nM | remaining activity at 4 µM (CaCYP51 Wild type; [1]): 0.66 ± 0.02% | IC50 (CaCYP51 Wild type; mean ± SD, duplicate, read-out: IC50): 200 nM and 195 nM | remaining activity at 4 µM (CaCYP51 Y132H+K143R; [1]): 0.74 ± 0.05% | IC50 (CaCYP51 Y132H+K143R; mean ± SD, duplicate): 196 ± 7 nM | remaining activity at 4 µM (CaCYP51 F126V; [1]): 0.1 ± 0.01% | IC50 (CaCYP51 F126V; mean ± SD, duplicate): 304 ± 70 nM | remaining activity at 4 µM (CaCYP51 R467K; [1]): 3.62 ± 0.09% | IC50 (CaCYP51 R467K; mean ± SD, duplicate): 380 ± 11 nM | remaining activity at 4 µM (CaCYP51 Y132H; [1]): 0.18 ± 0.06% | IC50 (CaCYP51 Y132H; mean ± SD, duplicate): 195 ± 3 nM | remaining activity at 4 µM (CaCYP51 Y257H; [1]): 6.42 ± 0.59% | IC50 (CaCYP51 Y257H; mean ± SD, duplicate): 611 ± 17 nM | remaining activity at 4 µM (CaCYP51 G450E; [1]): 15.6 ± 0.21% | IC50 (CaCYP51 G450E; mean ± SD, duplicate): 908 ± 132 nM | remaining activity at 4 µM (CaCYP51 D278N; [1]): 14.8 ± 0.92% | IC50 (CaCYP51 D278N; mean ± SD, duplicate): 908 ± 20 nM | remaining activity at 4 µM (CaCYP51 Q474K; [1]): 3.23 ± 0.18% | IC50 (CaCYP51 Q474K; mean ± SD, duplicate): 301 ± 17 nM | remaining activity at 4 µM (CaCYP51 V456I; [1]): 6.66 ± 0.05% | IC50 (CaCYP51 V456I; mean ± SD, duplicate): 602 ± 17 nM | remaining activity at 4 µM (CaCYP51 V488I; [1]): 2.11 ± 0.14% | IC50 (CaCYP51 V488I; mean ± SD, duplicate): 481 ± 52 nM | remaining activity at 4 µM (CaCYP51 G307S+G450E; [1]): 0.26 ± 0.11% | IC50 (CaCYP51 G307S+G450E; mean ± SD, duplicate): 312 ± 15 nM | remaining activity at 4 µM (CaCYP51 I471T; [1]): 7.71 ± 0.58% | IC50 (CaCYP51 I471T; mean ± SD, duplicate): 522 ± 64 nM | remaining activity at 4 µM (CaCYP51 G307S; [1]): 0.71 ± 0.04% | IC50 (CaCYP51 G307S; mean ± SD, duplicate): 288 ± 42 nM | IC50 (CaCYP51 Y132F+K143R): 246 ± 24 nM | remaining activity at 4 µM (CaCYP51 Y132F+K143R; [2]): 0.86 ± 0.11% | IC50 (CaCYP51 Y132F+F145L): 433 ± 102 nM | remaining activity at 4 µM (CaCYP51 Y132F+F145L; [2]): 2.64 ± 0.08%
